According to paper PMC12247152, “Nature‐Inspired Compounds Targeting Escherichia coli WrbA as Biofilm‐Modulating Agents: Computational Design, Synthesis, and Biological Evaluation” (Archiv Der Pharmazie, 2025):

The compounds below were run against T1, WrbA (Escherichia coli, UniProt P0A8G6) (assay: microscale thermophoresis (MST)). Details: read-out: K d ± confidence.
T1 construct: recombinant WrbA protein
Assay type: binding

T1 sequence (P0A8G6 2-198): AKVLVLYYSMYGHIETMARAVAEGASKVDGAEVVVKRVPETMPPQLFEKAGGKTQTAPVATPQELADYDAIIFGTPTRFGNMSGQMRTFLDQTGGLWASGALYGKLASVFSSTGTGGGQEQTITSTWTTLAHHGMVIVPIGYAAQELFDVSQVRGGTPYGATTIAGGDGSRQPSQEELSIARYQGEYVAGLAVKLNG

Structure (SMILES)	Kd [µM]
CC1(C)CC(=O)c2c(O)cc(OCC(N)=O)cc2O1 [1a, 2‐[(5‐Hydroxy‐2,2‐dimethyl‐4‐oxochroman‐7‐yl)oxy]acetamide]	18.7 ± 6.3
CC1(C)CC(=O)c2c(O)cc(OCC(=O)NCCNCc3ccccc3)cc2O1 [1c, N‐[2‐(Benzylamino)ethyl]‐2‐[(5‐hydroxy‐2,2‐dimethyl‐4‐oxochroman‐7‐yl)oxy]acetamide]	1.4 ± 0.7
CC1(C)CC(=O)c2c(O)cc(OCC(=O)NCc3cccc4ccccc34)cc2O1 [1e, 2‐[(5‐Hydroxy‐2,2‐dimethyl‐4‐oxochroman‐7‐yl)oxy]‐N‐(naphthalen‐1‐ylmethyl)acetamide]	2.1 ± 1.3
CC1(C)CC(=O)c2c(O)cc(OCC(=O)NCc3cccc(Cl)c3)cc2O1 [1d, N‐(3‐Chlorobenzyl)‐2‐[(5‐hydroxy‐2,2‐dimethyl‐4‐oxochroman‐7‐yl)oxy]acetamide]	5 ± 1.8
